ChEMBL document CHEMBL1629464, “Aldehyde oxidase: an enzyme of emerging importance in drug discovery” (J Med Chem, 2010)

Target: T1, Aldehyde oxidase 1 (Mus musculus, UniProt O54754)
T1 sequence (O54754 whole entry): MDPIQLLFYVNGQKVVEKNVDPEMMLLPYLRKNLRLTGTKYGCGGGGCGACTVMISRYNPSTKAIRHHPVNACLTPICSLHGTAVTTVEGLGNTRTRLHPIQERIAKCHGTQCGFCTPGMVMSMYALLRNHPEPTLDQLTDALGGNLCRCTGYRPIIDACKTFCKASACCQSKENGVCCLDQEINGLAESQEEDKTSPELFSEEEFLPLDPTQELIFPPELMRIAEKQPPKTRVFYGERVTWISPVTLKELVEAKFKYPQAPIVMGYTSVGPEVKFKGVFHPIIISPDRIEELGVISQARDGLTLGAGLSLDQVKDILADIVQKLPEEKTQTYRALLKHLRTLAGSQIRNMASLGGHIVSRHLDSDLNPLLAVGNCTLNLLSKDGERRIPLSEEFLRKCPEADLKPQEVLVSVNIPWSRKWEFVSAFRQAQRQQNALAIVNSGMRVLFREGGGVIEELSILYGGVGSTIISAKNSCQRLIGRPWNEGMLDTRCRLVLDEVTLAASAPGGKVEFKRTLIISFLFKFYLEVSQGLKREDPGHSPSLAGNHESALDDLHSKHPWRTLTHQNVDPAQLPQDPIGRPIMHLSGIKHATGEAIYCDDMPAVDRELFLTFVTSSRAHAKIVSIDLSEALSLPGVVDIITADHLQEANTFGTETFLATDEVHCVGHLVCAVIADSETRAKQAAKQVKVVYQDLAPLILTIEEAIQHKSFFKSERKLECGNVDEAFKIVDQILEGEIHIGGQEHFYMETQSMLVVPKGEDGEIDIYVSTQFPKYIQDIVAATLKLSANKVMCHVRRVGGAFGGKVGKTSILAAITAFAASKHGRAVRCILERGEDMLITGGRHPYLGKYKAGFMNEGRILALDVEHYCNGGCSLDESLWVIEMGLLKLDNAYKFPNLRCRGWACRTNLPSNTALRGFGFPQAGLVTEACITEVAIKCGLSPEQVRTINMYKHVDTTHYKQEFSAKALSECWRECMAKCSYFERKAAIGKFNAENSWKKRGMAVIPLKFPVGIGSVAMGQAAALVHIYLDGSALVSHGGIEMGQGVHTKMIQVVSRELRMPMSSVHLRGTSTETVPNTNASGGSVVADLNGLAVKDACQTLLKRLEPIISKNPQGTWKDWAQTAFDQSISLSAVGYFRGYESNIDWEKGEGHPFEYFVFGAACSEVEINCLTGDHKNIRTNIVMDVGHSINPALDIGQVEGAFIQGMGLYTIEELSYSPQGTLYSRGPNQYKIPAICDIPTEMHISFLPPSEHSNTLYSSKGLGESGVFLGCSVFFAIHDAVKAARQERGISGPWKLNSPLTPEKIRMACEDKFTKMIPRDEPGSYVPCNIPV
Assay: Inhibition of mouse aldehyde oxidase

SMILES: OCCN1CCN(CCCN2c3ccccc3Sc3ccc(Cl)cc32)CC1 [PERPHENAZINE]
- IC50: 6.1 µM
